Source: US20250144247A1, “FORMULATIONS TO ENHANCE THE DELIVERY OF GENE THERAPY VECTORS” (priority 2023, published 2025)
Read-outs that look alike come from different tables or passages of the source.

Legend:
[1] = test system: cultured cells on plastic; test: Gene transfer of cultured cells on plastic with hypertonic saline; format: cell-based
[2] = test system: human airway epithelial cells (HAE); format: cell-based; settings: for Ad gene transfer: imaged 5 days
[3] = test system: human airway epithelial cells (HAE); test: Transepithelial electrical resistance (TEER) of HAE after apical reagent; format: cell-based; settings: apical 5 minutes; LPC 0.1%, EGTA 250 mM, doxorubicin 5 μM, NaCl 3.6%, Infasurf 35 mg/ml
Description: The University of Iowa In Vitro Models and Cell Culture Core cultured and maintained human airway epithelial cells (HAE) as previously described (33). Briefly, following enzymatic disassociation of trachea and bronchus epithelia, the cells were seeded onto collagen-coated, polycarbonate transwell inserts (0.4 μm pore size; surface area=0.33 cm^2; Corning Costar, Cambridge, MA). HAE were submerged in Ultroser G (USG) medium for 24 hours (37° C. and 5% CO2) at which point the apical media is removed to encourage polarization and differentiation at an air-liquid interface. Transepithelial electrical resistance was measured using an Ohmmeter […]
Disrupting the epithelial tight junctions allows Ad5-based viral vectors access to their basolaterally localized coxsackie and adenovirus receptor (CXADR) (12). Unless otherwise specified, these studies use the Ad5 serotype. […] First, reagents were applied to the apical surface of HAE for 5 minutes and then TEER was measured using an ohmmeter. […] In separate cultures, Ad-GFP (MOI=250) in 50 μl of DMEM combined 1:1 with the test reagents was applied to the apical surface for 2 hours. 5 days post-treatment, cells were imaged by fluorescence microscopy.

[4] = Osmolarity and pH of the solutions; format: physicochemical
[5] = test system: human airway epithelial cells (HAE); format: cell-based
mouse airways = test: Adenoviral transduction of mouse airways (Ad-luciferase, IVIS); format: in vivo, Balb/c mice; settings: Ad-luciferase intratracheal, 7% NaCl vs 0.9% NaCl, five days
Description: 6-8-week-old Balb/c mice were sedated with ketamine/xylazine (87.5+2.5 mg/kg). Ad-CMV-firefly luciferase was delivered intratracheally with 1×10^9 TU formulated with NaCl (0.9% or 7% final) in a 50 ul volume. 5 days later mice were given intraperitoneal D-luciferin (50227, Millipore Sigma, St. Louis, MO) imaged for luminescence expression using the Xenogen IVIS-200.

[6] = test system: human airway epithelial cells (HAE); test: Scanning electron microscopy of HAE surface; settings: NaCl 3.6% for 2 hours vs no NaCl control
[7] = test system: human airway epithelial cells (HAE); test: AAV2.5T-GFP transduction of HAE; format: cell-based; settings: NaCl 4.5%, MOI=100,000 vg/cell, 2 hours, doxorubicin 1 μM pre-treatment, 2 weeks
[8] = test system: newborn pig tracheal explants; test: Pig tracheal explant transduction ex vivo; settings: NaCl 5%, apical 2 hours
Description: 0.25 cm^2 tracheal explants from newborn pigs were cultured on Surgifoam (1972, Ethicon, Raritan, NJ) for 3-5 days prior to transduction. Ad5-mcherry (1×10^9 TU), AAVH22-GFP (2×10^10 vg), and GP64 HIV-GFP (1.75×10^7 TU) were applied with or without NaCl (5%) to the apical surface of the trachea by inverting the trachea onto a tissue culture dish containing the viral solution for 2 hours then returned to an upright position on Surgifoam. 5 days post-transduction, tracheal explants were mounted on a microscope slide and imaged for fluorescent expression using confocal microscopy. Expression was quantified using Image J (FIJI) by measuring fluorescence intensity per high power field.
Using freshly excised newborn pig tracheal explants maintained on Surgifoam, Ad-GFP or AAVH22-GFP (a pig-tropic AA V capsid)±NaCl (5%) was applied to the apical surface by inverting the tissue in a culture dish for 2 hours. One week later, tissues were fixed and imaged by confocal microscopy. […] Fluorescence was quantified by transduction area per high power field.

pig airways = test: Viral gene transfer in pig airways; format: in vivo, newborn pigs
Description: Newborn pigs were sedated using isoflurane and viral vector formulated with NaCl (0.9% or 5% final) and acrosolized 2 ml intratracheally using a MADgic Laryngo-Tracheal Mucosal Atomization Device (Teleflex, Morrisville, NC). Doses for each vector for each pig were as follows: 2.8×10^10 infectious genomic units (IGU) of helper-dependent Ad-CMV-GFP and 7×10^8 TU of GP64 HIV-CMV-GFP. Doses were prepared by mixing a 1.8% NaCl or 10% NaCl stock 1:1 with 1 ml of vector. 1 week later, pigs were humanely euthanized, and lungs were analyzed for GFP expression. Lungs were systematically divided and fixed in 4% paraformaldehyde, subjected to a sucrose gradient, and embedded in OCT for cryosectioning. Sectioned lung slides were mounted using DAPI and imaged using a Keyence All-in-one Fluorescence Microscope BZ-X series (Osaka, Japan).
To determine cell types transduced in vivo, a pig model that more closely recapitulates the anatomy and cell biology of human airways was used. Newborn pigs received Ad-GFP via intratracheal delivery with 0.9% NaCl or 5% NaCl. Five days after delivery, lungs were collected and GFP expression was visualized under a fluorescence dissecting microscope (data not shown). Lungs were divided into 20 regions for systematic quantification as previously described (data not shown) and scored based on level of expression (0=no expression, 1=low expression, 2=moderate expression, and 3=high expression) (data not shown).

[9] = test system: CFTR anion transport in CF HAE; test: Ussing chamber short circuit current and conductance of CF HAE; format: cell-based, human
measles virus (MeV) = test: Measles virus (MeV) infection of HAE; format: cell-based, human; settings: wild-type MeV, NaCl (4%)
Description: […] After infection, virus inoculums removed. […] After infection, basolateral-infected cultures were returned upright. All MeV infections took place for 4 hours in 37° C. at an MOI of 1 with a total inoculum of 50 μL.

## [Cl-].[Na+] [NaCl, sodium chloride]
[1]
  effect on cultured cells on plastic: lifting of the cells
[2]; 0.9% NaCl (PBS), Ad-GFP MOI=250, apical 2 hours
  Ad gene transfer: did not enhance Ad gene transfer
[2]; 1-7% NaCl, Ad-GFP MOI=250
  transduction of basal, secretory and ciliated cells: all transduced in a dose dependent manner
[2]; 3.6% NaCl vs 3.6% NaGluconate, 3.6% KCl, 0.9% NaCl, 0.9% NaCl + mannitol, 2 h, 5 days
  Ad-GFP transduction efficiency, comparison of osmolytes: greatest increase in transduction efficiency
[2]; Ad-GFP MOI=250 combined 1:1 with reagent, apical 2 hours, LPC 0.1%, EGTA 250 mM, doxorubicin 5 μM, NaCl 3.6%, Infasurf
  Ad gene transfer: conferred remarkable transduction
[2]; Ad-GFP with NaCl 3.6%
  co-treatment time giving maximal expression: 2 h
[2]; NaCl 3.6% adjusted to pH 5, 6, 7, 7.4 and 8, Ad-GFP
  % GFP+ cells across pH range: no significant differences
[2]; NaCl 3.6% or Ad-GFP for 5, 15, 30, 60 or 120 min
  % GFP+ cells versus length of exposure: increased incrementally with increasing temporal exposure
[2]; dose response 1-7% NaCl final, Ad-GFP MOI=250
  Ad transduction efficiency (% GFP+ cells): dose dependent increase in transduction efficiency
[2]; ≤3% NaCl
  benefit on Ad transduction: little benefit on transduction
[3]
  transepithelial electrical resistance (TEER): decreased TEER
[4]; 0.9% solution
  Osmolarity: 310 mOsmol/l
[4]; 1% solution
  Osmolarity: 342 mOsmol/l
[4]; 2% solution
  Osmolarity: 684 mOsmol/l
[4]; 3% solution
  Osmolarity: 1027 mOsmol/l
[4]; 3.6% NaCl in deionized water
  unadjusted pH: ~6
[4]; 3.6% solution
  Osmolarity: 1230 mOsmol/l
[4]; 4% solution
  Osmolarity: 1369 mOsmol/l
[4]; 5% solution
  Osmolarity: 1711 mOsmol/l
[4]; 6% solution
  Osmolarity: 2053 mOsmol/l
[4]; 7% solution
  Osmolarity: 2693 mOsmol/l
[5]; MOI=50, NaCl formulation
  transduction of primary human CF cultures, GP64 HIV-GFP: remarkable levels of transduction
[5]; non-CF HAE, 3.5, 4 or 4.5% NaCl, MOI=50
  GFP expression, GP64 HIV vector: dose-dependent increase in GFP expression
Mouse airways
  luciferase expression (bioluminescence): significantly increased expression in the nose and lung
[6]
  cell surface integrity and ciliation by SEM: no overt physical differences
[7]
  GFP expression, AAV-GFP (AAV2.5T): significantly higher GFP expression
[8]
  transduction with Ad and AAVH22 (fluorescence per high power field): markedly enhanced
Pig airways; Ad-GFP intratracheal, NaCl 5% vs 0.9%, five days
  GFP+ score (0-3, 20 lung regions): significantly increased
Pig airways; Ad-GFP, 5% NaCl
  transduction of ciliated cells and CK5+ basal cells: transduction of ciliated cells was observed
  transduction of submucosal glands: high levels of transduction
Pig airways; Ad-GFP, 5% NaCl vs 0.9% NaCl
  transduction of large (>500 μm^2) and small (<500 μm^2) airways: significantly more airway transduction
Pig airways; NaCl 5% vs 0.9% NaCl
  transduction by GP64 HIV-GFP: significantly enhanced transduction
[9]; CF HAE, Ad-CFTR (MOI=250) and NaCl 3.6%, apical 2 hours, 5 days
  Cl− secretion (short circuit current and conductance, F&I and GlyH): wild-type levels of Cl^− secretion
[9]; CF airway cultures, AAV2.5T-CFTR with NaCl 4.5%, 2 weeks
  anion channel activity responses to F&I and GlyH: increased anion channel activity responses
[9]; primary CF HAE, GP64 HIV-CFTR (MOI=50) in the presence of NaCl 4.5%
  CFTR-dependent anion transport: restored the CFTR-dependent anion transport
Measles virus (MeV)
  MeV infection following apical application: occurred only in the presence of NaCl
